Patent US7138361B2, “Herbicidal heterocycles” (E. I. du Pont de Nemours and Company, priority 2000, dated 2006)

Experiments:
Format in all cases: in vivo
Sunflower = experiment: Test C preemergence; conditions: scale 0 to 100, 0 no effect, 100 complete control
[1] = system: blackgrass (Alopecurus myosuroides); experiment: Test B postemergence; conditions: 13 to 15 days
How it was run: (§1)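 Post-treatment, species sat 13–15 days under greenhouse conditions before visual scoring against controls, 0 (no effect) through 100 (complete control). Application preemergence to sown seeds or postemergence at 1- to 4-leaf stage, using a non-phytotoxic solvent/surfactant formulation.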

wild oat (Avena fatua) = experiment: Test B postemergence; conditions: 13 to 15 days
How it was run: as §1

[2] = system: pigweed (Amaranthus retroflexus); experiment: Test B postemergence; conditions: 13 to 15 days
How it was run: as §1

corn (Zea mays) [3] = experiment: Test B postemergence; conditions: 13 to 15 days
How it was run: as §1

[4] = system: giant foxtail (Setaria faberii); experiment: Test B postemergence; conditions: 13 to 15 days
How it was run: as §1

[5] = system: lambsquarters (Chenopodium album); experiment: Test B postemergence; conditions: 13 to 15 days
How it was run: as §1

[6] = system: velvetleaf (Abutilon theophrasti); experiment: Test B postemergence; conditions: 13 to 15 days
How it was run: as §1

[7] = system: wheat (Triticum aestivum); experiment: Test B postemergence; conditions: 13 to 15 days
How it was run: as §1

[8] = system: Surinam grass (Brachiaria decumbens); experiment: Test B postemergence; conditions: 13 to 15 days
How it was run: as §1

[9] = system: cocklebur (Xanthium strumarium); experiment: Test B postemergence; conditions: 13 to 15 days
How it was run: as §1

[10] = system: barnyardgrass (Echinochloa crus-galli); experiment: Test B postemergence; conditions: 13 to 15 days
How it was run: as §1

[11] = system: morning glory (Ipomoea hederacea); experiment: Test B postemergence; conditions: 13 to 15 days
How it was run: as §1

[12] = system: crabgrass (Digitaria sanguinalis); experiment: Test B postemergence; conditions: 13 to 15 days
How it was run: as §1

Nightshade = experiment: Test C preemergence; conditions: visual evaluation after 12 to 14 days
rice (Oryza saliva) [13] = experiment: Test C flooded paddy test; conditions: for Rice plant response rating: Flooded Paddy, scale 0 to 100, 0 no effect, 100 complete control; for Plant response rating, Rice: flooded paddy test, scale 0 to 100 (0 no effect, 100 complete control)
How it was run: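 Visual ratings (0 = no effect, 100 = complete control) were made 12–14 days after treatment, relative to greenhouse controls. Plants in the flooded paddy test were rice, smallflower flatsedge, duck salad and barnyardgrass, treated at the 2-leaf stage.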

rice (Oryza saliva) [14] = experiment: Test B preemergence
How it was run: as §1

[15] = system: pigweed (Amaranthus retroflexus); experiment: Test B preemergence
How it was run: as §1

corn (Zea mays) [16] = experiment: Test B preemergence
How it was run: as §1

[17] = system: giant foxtail (Setaria faberii); experiment: Test B preemergence
How it was run: as §1

[18] = system: velvetleaf (Abutilon theophrasti); experiment: Test B preemergence
How it was run: as §1

[19] = system: Surinam grass (Brachiaria decumbens); experiment: Test B preemergence
How it was run: as §1

[20] = system: cocklebur (Xanthium strumarium); experiment: Test B preemergence
How it was run: as §1

[21] = system: barnyardgrass (Echinochloa crus-galli); experiment: Test B preemergence
How it was run: as §1

[22] = system: morning glory (Ipomoea hederacea); experiment: Test B preemergence
How it was run: as §1

[23] = system: crabgrass (Digitaria sanguinalis); experiment: Test B preemergence
How it was run: as §1

[24] = system: lambsquarters (Chenopodium album); experiment: Test B preemergence
How it was run: as §1

[25] = Rate 125 g/ha, scale 0 (no effect) to 100 (complete control)
[26] = Rate 500 g/ha, scale 0 to 100, 0 is no effect, 100 is complete control
[27] = Preemergence, Rate 500 g/ha, scale 0 to 100, 0 no effect, 100 complete control
[28] = preemergence, Rate 125 g/ha, scale 0 to 100, 0 no effect, 100 complete control
[29] = preemergence, Rate 125 g/ha, scale of 0 to 100 where 0 is no effect and 100 is complete control, 13 to 15 days

CCC(C)c1ccn(C2SCN(c3cccc(C(F)(F)F)c3)C2=O)n1 (stereo not drawn) [Compound 20]
Plant response rating, Sunflower (Sunflower; Rate 125 g/ha): 40
Plant response rating, Blackgrass [1, 25]: 0
Plant response rating, Blackgrass [1, 26]: 0
Plant response rating, Wild Oat (wild oat (Avena fatua); [25]): 0
Plant response rating, Wild Oat (wild oat (Avena fatua); [26]): 0
Plant response rating, Pigweed [2, 25]: 90
Plant response rating, Pigweed [2, 26]: 90
Plant response rating, Corn (corn (Zea mays) [3]; [25]): 0
Plant response rating, Corn (corn (Zea mays) [3]; [26]): 20
Plant response rating, Foxtail, Giant [4, 25]: 50
Plant response rating, Foxtail, Giant [4, 26]: 90
Plant response rating, Lambsquarters [5, 25]: 90
Plant response rating, Lambsquarters [5, 26]: 90
Plant response rating, Velvetleaf [6, 25]: 10
Plant response rating, Velvetleaf [6, 26]: 20
Plant response rating, Wheat [7, 25]: 0
Plant response rating, Wheat [7, 26]: 0
Plant response rating, Surinam grass [8, 25]: 0
Plant response rating, Surinam grass [8, 26]: 0
Plant response rating, Cocklebur [9, 25]: 80
Plant response rating, Cocklebur [9, 26]: 90
Plant response rating, Barnyardgrass [10, 25]: 60
Plant response rating, Barnyardgrass [10, 26]: 100
Plant response rating, Morningglory [11, 25]: 60
Plant response rating, Morningglory [11, 26]: 60
Plant response rating, Crabgrass [12, 25]: 20
Plant response rating, Crabgrass [12, 26]: 80
Plant response rating (0 to 100), Nightshade (Nightshade; Rate 250 g/ha): 90
Rice plant response rating (rice (Oryza saliva) [13]; Rate 250 g/ha): 60
Rice plant response rating (rice (Oryza saliva) [13]; Rate 500 g/ha): 70
Plant response rating, Rice (rice (Oryza saliva) [13]; Rate 62 g/ha): 0
Plant response rating, Rice (rice (Oryza saliva) [13]; Rate 125 g/ha): 20
Plant response rating, Rice (rice (Oryza saliva) [14]; [27]): 0
Plant response rating, Rice (rice (Oryza saliva) [14]; [28]): 0
Plant response rating, Pigweed [15, 27]: 100
Plant response rating, Pigweed [15, 28]: 0
Plant response rating, Corn (corn (Zea mays) [16]; [27]): 0
Plant response rating, Corn (corn (Zea mays) [16]; [28]): 0
Plant response rating, Foxtail, Giant [17, 27]: 100
Plant response rating, Foxtail, Giant [17, 28]: 70
Plant response rating, Velvetleaf [18, 27]: 0
Plant response rating, Velvetleaf [18, 28]: 0
Plant response rating, Surinam grass [19, 27]: 0
Plant response rating, Surinam grass [19, 28]: 0
Plant response rating, Cocklebur [20, 27]: 0
Plant response rating, Cocklebur [20, 28]: 0
Plant response rating, Barnyardgrass [21, 27]: 100
Plant response rating, Barnyardgrass [21, 28]: 0
Plant response rating, Morningglory [22, 27]: 0
Plant response rating, Morningglory [22, 28]: 0
Plant response rating, Crabgrass [23, 28]: 0

CCC(CC)c1ccn(C2CCN(c3cccc(OC(C)C)c3)C2=O)n1 (stereo not drawn) [Compound 84]
Plant response rating, Sunflower (Sunflower; Rate 250 g/ha): 30
Plant response rating, Blackgrass [1, 25]: 0
Plant response rating, Blackgrass [1, 26]: 0
Plant response rating, Wild Oat (wild oat (Avena fatua); [25]): 0
Plant response rating, Wild Oat (wild oat (Avena fatua); [26]): 10
Plant response rating, Pigweed [2, 25]: 60
Plant response rating, Pigweed [2, 26]: 70
Plant response rating, Corn (corn (Zea mays) [3]; [25]): 0
Plant response rating, Corn (corn (Zea mays) [3]; [26]): 0
Plant response rating, Foxtail, Giant [4, 25]: 0
Plant response rating, Foxtail, Giant [4, 26]: 10
Plant response rating, Lambsquarters [5, 25]: 50
Plant response rating, Lambsquarters [5, 26]: 60
Plant response rating, Velvetleaf [6, 25]: 0
Plant response rating, Velvetleaf [6, 26]: 10
Plant response rating, Wheat [7, 25]: 0
Plant response rating, Wheat [7, 26]: 0
Plant response rating, Surinam grass [8, 25]: 0
Plant response rating, Surinam grass [8, 26]: 10
Plant response rating, Cocklebur [9, 25]: 10
Plant response rating, Cocklebur [9, 26]: 20
Plant response rating, Barnyardgrass [10, 25]: 0
Plant response rating, Barnyardgrass [10, 26]: 80
Plant response rating, Morningglory [11, 25]: 10
Plant response rating, Morningglory [11, 26]: 30
Plant response rating, Crabgrass [12, 25]: 0
Plant response rating, Crabgrass [12, 26]: 10
Plant response rating (0 to 100), Nightshade (Nightshade; Rate 500 g/ha): 100
Rice plant response rating (rice (Oryza saliva) [13]; Rate 250 g/ha): 30
Rice plant response rating (rice (Oryza saliva) [13]; Rate 500 g/ha): 90
Plant response rating, Rice (rice (Oryza saliva) [13]; Rate 62 g/ha): 0
Plant response rating, Rice (rice (Oryza saliva) [13]; Rate 125 g/ha): 0
Plant response rating, Rice (rice (Oryza saliva) [14]; [27]): 100
Plant response rating, Rice (rice (Oryza saliva) [14]; [29]): 0
Plant response rating, Pigweed [15, 27]: 100
Plant response rating, Pigweed [15, 29]: 100
Plant response rating, Corn (corn (Zea mays) [16]; [27]): 20
Plant response rating, Corn (corn (Zea mays) [16]; [29]): 0
Plant response rating, Foxtail, Giant [17, 27]: 100
Plant response rating, Foxtail, Giant [17, 29]: 100
Plant response rating, Velvetleaf [18, 27]: 0
Plant response rating, Velvetleaf [18, 29]: 0
Plant response rating, Surinam grass [19, 27]: 100
Plant response rating, Surinam grass [19, 29]: 80
Plant response rating, Cocklebur [20, 27]: 0
Plant response rating, Cocklebur [20, 29]: 0
Plant response rating, Barnyardgrass [21, 27]: 100
Plant response rating, Barnyardgrass [21, 29]: 100
Plant response rating, Morningglory [22, 27]: 0
Plant response rating, Morningglory [22, 29]: 0
Plant response rating, Crabgrass [23, 27]: 100
Plant response rating, Crabgrass [23, 29]: 100

CC(C)Oc1cccc(N2CCC(n3ccc(C(C)(C)C)n3)C2=O)c1 (stereo not drawn) [Compound 70]
Plant response rating, Sunflower (Sunflower; Rate 125 g/ha): 20
Plant response rating, Sunflower (Sunflower; Rate 250 g/ha): 60
Plant response rating, Blackgrass [1, 25]: 0
Plant response rating, Blackgrass [1, 26]: 0
Plant response rating, Wild Oat (wild oat (Avena fatua); [25]): 0
Plant response rating, Wild Oat (wild oat (Avena fatua); [26]): 0
Plant response rating, Pigweed [2, 25]: 0
Plant response rating, Pigweed [2, 26]: 0
Plant response rating, Corn (corn (Zea mays) [3]; [25]): 0
Plant response rating, Corn (corn (Zea mays) [3]; [26]): 0
Plant response rating, Foxtail, Giant [4, 25]: 0
Plant response rating, Foxtail, Giant [4, 26]: 0
Plant response rating, Lambsquarters [5, 25]: 0
Plant response rating, Lambsquarters [5, 26]: 0
Plant response rating, Velvetleaf [6, 25]: 0
Plant response rating, Velvetleaf [6, 26]: 0
Plant response rating, Wheat [7, 25]: 0
Plant response rating, Wheat [7, 26]: 0
Plant response rating, Surinam grass [8, 25]: 0
Plant response rating, Surinam grass [8, 26]: 0
Plant response rating, Cocklebur [9, 25]: 0
Plant response rating, Cocklebur [9, 26]: 0
Plant response rating, Barnyardgrass [10, 25]: 0
Plant response rating, Barnyardgrass [10, 26]: 0
Plant response rating, Morningglory [11, 25]: 30
Plant response rating, Morningglory [11, 26]: 30
Plant response rating, Crabgrass [12, 25]: 0
Plant response rating, Crabgrass [12, 26]: 0
Plant response rating (0 to 100), Nightshade (Nightshade; Rate 500 g/ha): 70
Rice plant response rating (rice (Oryza saliva) [13]; Rate 250 g/ha): 60
Rice plant response rating (rice (Oryza saliva) [13]; Rate 500 g/ha): 90
Plant response rating, Rice (rice (Oryza saliva) [13]; Rate 62 g/ha): 20
Plant response rating, Rice (rice (Oryza saliva) [14]; [27]): 30
Plant response rating, Rice (rice (Oryza saliva) [14]; [29]): 30
Plant response rating, Pigweed [15, 27]: 100
Plant response rating, Pigweed [15, 29]: 100
Plant response rating, Foxtail, Giant [17, 27]: 100
Plant response rating, Foxtail, Giant [17, 29]: 90
Plant response rating, Lambsquarters [24, 27]: 100
Plant response rating, Lambsquarters [24, 29]: 100
Plant response rating, Velvetleaf [18, 27]: 0
Plant response rating, Velvetleaf [18, 29]: 0
Plant response rating, Surinam grass [19, 27]: 0
Plant response rating, Surinam grass [19, 29]: 0
Plant response rating, Cocklebur [20, 27]: 0
Plant response rating, Cocklebur [20, 29]: 0
Plant response rating, Morningglory [22, 27]: 80
Plant response rating, Morningglory [22, 29]: 20
Plant response rating, Crabgrass [23, 27]: 100
Plant response rating, Crabgrass [23, 29]: 90
